Laboratory results published in the CheMixHub ionic liquid set.
± gives the uncertainty stated by the source.

Assay: xn = mol fraction of the nth substance listed
Conditions: for electrical conductivity: 101 kPa, frequency 2 MHz; for viscosity: 100 kPa

O=S(=O)([O-])C(F)(F)F.[Li+] + O=S(=O)([N-]S(=O)(=O)C(F)(F)F)C(F)(F)F.[Li+] + O
Conditions | electrical conductivity, 318.1 K [S/m] | electrical conductivity, 323 K [S/m] | electrical conductivity, 328.1 K [S/m] | electrical conductivity, 333 K [S/m] | viscosity, 318.15 K [mPa·s] | viscosity, 328.15 K [mPa·s]
x1 = 0.04029, x2 = 0.1114 | – | – | – | – | 4.4 ± 0.4 | 3.5 ± 0.3
x1 = 0.07222, x2 = 0.1893 | – | – | – | – | 15.2 ± 1.2 | 11.5 ± 0.9
x1 = 0.09226, x2 = 0.2336 | – | – | – | – | 31.9 ± 2.6 | 22.9 ± 1.8
x1 = 0.1024, x2 = 0.2553 | – | – | – | – | 43.4 ± 3.5 | 30.9 ± 2.5
x1 = 0.1122, x2 = 0 | – | – | – | – | 2.27 ± 0.18 | 1.85 ± 0.15
x1 = 0.1122, x2 = 0.2745 | – | – | – | – | 63 ± 5 | 43.6 ± 3.5
x1 = 0.1783, x2 = 0 | – | – | – | – | 5.3 ± 0.4 | 4.2 ± 0.3
x1 = 0.2388, x2 = 0 | – | – | – | – | 11.1 ± 0.9 | 8.6 ± 0.7
x1 = 0.2541, x2 = 0 | – | – | – | – | 15.9 ± 1.3 | 12.2 ± 1
x1 = 0.2743, x2 = 0 | – | – | – | – | 23.9 ± 1.9 | 18.1 ± 1.5
x2 = 0.001799, x1 = 0.0005943 | 1.16 ± 0.012 | 1.26 ± 0.013 | 1.37 ± 0.014 | 1.47 ± 0.015 | – | –
x2 = 0.005377, x1 = 0.001799 | 2.87 ± 0.029 | 3.132 ± 0.031 | 3.4 ± 0.034 | 3.66 ± 0.037 | – | –
x2 = 0.00893, x1 = 0.003054 | 4.22 ± 0.042 | 4.612 ± 0.046 | 5.004 ± 0.05 | 5.39 ± 0.054 | – | –
x2 = 0.01246, x1 = 0.004127 | 5.324 ± 0.053 | 5.82 ± 0.058 | 6.316 ± 0.063 | 6.804 ± 0.068 | – | –
x2 = 0.01596, x1 = 0.005377 | 6.231 ± 0.062 | 6.813 ± 0.068 | 7.39 ± 0.074 | 7.97 ± 0.08 | – | –
x2 = 0.01944, x1 = 0.006623 | 6.98 ± 0.07 | 7.629 ± 0.076 | 8.28 ± 0.083 | 8.919 ± 0.089 | – | –
x2 = 0.05129, x1 = 0.0177 | 9.39 ± 0.094 | 10.26 ± 0.1 | 11.13 ± 0.11 | 12 ± 0.12 | – | –
x2 = 0.08265, x1 = 0.02921 | 8.25 ± 0.083 | 9.028 ± 0.09 | 9.803 ± 0.098 | 10.6 ± 0.11 | – | –
x2 = 0.112, x1 = 0.04029 | 6.46 ± 0.065 | 7.08 ± 0.071 | 7.716 ± 0.077 | 8.339 ± 0.083 | – | –
x2 = 0.1395, x1 = 0.05129 | 4.845 ± 0.048 | 5.343 ± 0.053 | 5.846 ± 0.058 | 6.348 ± 0.063 | – | –
x2 = 0.1654, x1 = 0.06203 | 3.58 ± 0.036 | 3.97 ± 0.04 | 4.37 ± 0.044 | 4.78 ± 0.048 | – | –
x2 = 0.1898, x1 = 0.07238 | 2.631 ± 0.026 | 2.943 ± 0.029 | 3.27 ± 0.033 | 3.59 ± 0.036 | – | –
x2 = 0.2128, x1 = 0.08265 | 1.932 ± 0.019 | 2.18 ± 0.022 | 2.439 ± 0.024 | 2.706 ± 0.027 | – | –
x2 = 0.2345, x1 = 0.0927 | 1.418 ± 0.014 | 1.616 ± 0.016 | 1.824 ± 0.018 | 2.041 ± 0.02 | – | –
x2 = 0.2551, x1 = 0.1024 | 1.04 ± 0.01 | 1.2 ± 0.012 | 1.36 ± 0.014 | – | – | –
x2 = 0.2745, x1 = 0.112 | 0.76 ± 0.008 | 0.884 ± 0.009 | 1.017 ± 0.01 | – | – | –
